PubChem BioAssay (NCI)
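Each compound was tested at five concentrations against cells in 96-well plates for 48 hours. GI50 is the concentration that inhibits growth by half. TGI: total growth inhibition.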

Legend:
Experiment in all cases: NCI tumour cell line growth inhibition, 48 h
[1] = tested on: SK-MEL-2 melanoma
[2] = tested on: LOX IMVI melanoma
[3] = tested on: NCI-H23 lung
[4] = tested on: CCRF-CEM leukemia
[5] = tested on: UO-31 renal
[6] = tested on: HOP-92 NSCLC
[7] = tested on: UACC-257 melanoma
[8] = tested on: SW-620 colon
[9] = tested on: RPMI-8226 leukemia
[10] = tested on: OVCAR-3 ovarian

SMILES	TGI [1] [µM]	TGI [2] [µM]	TGI [3] [µM]	TGI [4] [µM]	TGI [5] [µM]	TGI [6] [µM]	TGI [7] [µM]	TGI [8] [µM]	TGI [9] [µM]	TGI [10] [µM]	GI50 [10] [µM]	GI50 [3] [µM]	GI50 [4] [µM]	GI50 [5] [µM]	GI50 [8] [µM]
CN(C)c1ccc(C(=NN)c2ccc(N(C)C)cc2)cc1	0.445	> 100	> 37.7	3.41	> 100	> 54.4	0.813	> 100	10.3	–	–	–	–	–	–
Oc1ccc(-c2cn3cc(C(F)(F)F)ccc3n2)cc1	> 100	> 100	> 100	> 100	> 100	> 100	> 100	> 100	–	> 100	–	–	–	–	–
COC(=O)[C@@H]1Cc2cc(O)c(O)cc2C2(CCN(C)CC2)O1	> 10	> 10	> 10	> 10	–	> 10	> 10	> 10	> 10	> 10	–	–	–	–	–
CC(C)CN(CC#N)CC(C)C	–	> 100	> 100	–	> 100	> 100	> 100	> 100	> 100	> 100	–	–	–	–	–
CC(=O)O[C@@H]1O[Si](C(C)(C)C)(C(C)(C)C)[C@H](C)[C@H]1C	> 100	> 100	> 100	> 100	> 100	–	> 100	> 100	> 100	> 100	–	–	–	–	–
CN1C(=O)C23CCCCC2CC1(c1ccccc1)S3 (centres undefined)	> 100	> 100	> 100	–	> 100	> 100	54.5	> 100	> 100	> 100	–	–	–	–	–
NC(N)=NC(N)=Nc1ccccc1 (tested in a mixture with another compound)	> 100	> 100	> 100	> 100	> 100	–	> 100	> 100	–	> 100	–	–	–	–	–
CCOC(=O)NC(=S)c1ccc(O)c2ccccc12	> 100	> 100	> 100	46.7	> 100	–	> 100	> 100	> 100	> 100	–	–	–	–	–
CCN(CC)COC(=S)S	57	> 100	> 100	–	> 100	> 100	> 76.3	78.1	–	–	–	–	–	–	–
N#CCCN(CCC#N)c1ccc(C(N=Nc2ccc(Cl)cc2)=Nc2ccc(F)cc2)cc1	–	–	> 100	> 100	> 100	> 100	> 100	> 100	> 100	> 100	–	–	–	–	–
OC(c1ccccc1)C(F)(F)c1nc2ccccc2o1 (centres undefined)	> 100	> 100	> 100	> 100	> 100	> 100	> 100	> 100	> 100	–	–	–	–	–	–
O=C1CN(c2ccc(Cl)cc2)C(=O)CN1NCNN1CC(=O)N(c2ccc(Cl)cc2)CC1=O	–	–	> 100	> 100	> 100	> 100	> 100	> 100	> 100	> 100	–	–	–	–	–
O=C(Nc1nc(C23CC4CC(CC(C4)C2)C3)cs1)c1cc2c(ccc3ccccc32)oc1=O	–	> 100	> 100	> 100	> 100	> 100	> 100	> 100	> 100	> 100	–	–	–	–	–
CN(C)c1ccc(C2ON=C(c3ccccc3)N2C23CC4CC(CC(C4)C2)C3)cc1 (centres undefined)	> 10	> 10	> 10	> 10	–	> 10	> 10	> 10	> 10	> 10	–	–	–	–	–
Cc1ccc(-c2cc(-c3c(C)nn(C)c(=O)c3N)[nH]n2)cc1	> 100	> 100	> 100	> 100	–	> 100	> 100	> 100	> 100	> 100	–	–	–	–	–
O=[As](O)(O)c1ccc2nc3cc([As](=O)(O)O)ccc3nc2c1	> 100	> 100	> 100	–	> 100	> 100	> 100	> 100	–	> 100	–	–	–	–	–
Cc1ccc(C2CC(c3cccc(Nc4ccncc4)c3)=NN2c2ccccc2)cc1 (centres undefined)	–	–	2.97	77.9	2.74	–	–	3.3	–	3.13	1.7	1.53	3.95	1.41	1.71
CN(C)Cc1cc(N=Nc2ccc(Cl)cc2)ccc1O	38.1	23.5	45.2	36.7	24.5	34.6	32.7	30.7	–	24.2	–	–	–	–	–
Cn1c(-c2ccc(N=NNc3ccc(-c4n[nH]c(=S)n4C)cc3)cc2)n[nH]c1=S	> 100	> 100	> 100	> 100	–	8.84	> 100	> 100	–	> 100	–	–	–	–	–
CN(C)CCCNC(=O)c1cc(NC(=O)c2cc(NC(=O)[C@@H]3C[C@H]3C(=O)Nc3cc(C(=O)Nc4cc(C(=O)NCCCN(C)C)n(C)c4)n(C)c3)cn2C)cn1C	> 100	> 100	> 100	> 100	–	> 100	> 100	> 100	> 100	–	–	–	–	–	–
COC(=O)c1c(C(=O)OC)c2c3ccccc3n(C)c2c2c1c1ccccc1n2C	> 100	> 100	> 100	> 100	> 100	> 100	> 100	> 100	> 100	–	–	–	–	–	–
O=C(O)c1nccnc1C(=O)O	> 100	> 100	> 100	> 100	> 100	> 100	> 100	> 100	> 100	–	–	–	–	–	–
CCOC(=O)c1[nH]c2nc(SC)nc(Nc3ccccc3Cl)c2c1N	> 100	44.8	60.5	46.8	42.7	–	> 100	> 100	43.5	75.4	–	–	–	–	–
